Laboratory results published in patent US20100210635A1, “RENIN INHIBITORS” (Takeda Pharmaceutical Company Limited, priority 2006, published 2010).

Target: T1, Recombinant human renin (Homo sapiens, UniProt P00797)
T1 construct: isolate the active form (residues 67-406); made in house; host or cells: FreeStyle 293-F cells (transient expression of pcDNA3.1(+)/hREN)
T1 sequence (P00797 67-406): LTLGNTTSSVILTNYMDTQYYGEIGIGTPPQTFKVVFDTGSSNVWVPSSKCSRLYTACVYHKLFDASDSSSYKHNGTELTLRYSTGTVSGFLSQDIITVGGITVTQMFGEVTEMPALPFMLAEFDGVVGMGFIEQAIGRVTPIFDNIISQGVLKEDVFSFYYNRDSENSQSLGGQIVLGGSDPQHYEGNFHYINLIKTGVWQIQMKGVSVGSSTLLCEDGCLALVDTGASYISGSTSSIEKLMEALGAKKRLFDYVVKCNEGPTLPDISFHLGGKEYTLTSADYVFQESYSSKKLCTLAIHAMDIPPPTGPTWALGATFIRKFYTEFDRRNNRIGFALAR
Experiment: In vitro enzymatic activity assay of Renin inhibitors (fluorescence, QXL520/HiLyteFluo488 peptide substrate)
Assay type: biochemical
Conditions: not given
Description: Test compounds in varying concentrations may be reacted with recombinant human renin in the presence of substrate, e.g., QXL520-γ-Abu-Ile-His-Pro-Phe-His-Leu-Val-Ile-His-Thr-Lys (HiLyteFluo488)-Arg-OH (Anaspec, San Jose, Calif.). The reaction can be followed kinetically using fluorescence (excitation λ=485 nm; emission λ=538 nm). Inhibition constants (IC50) may be calculated by non-linear curve fitting of the compound concentrations and fluorescence intensities to the standard IC50 equation.
Solutions of test compounds in varying concentrations (<2 mM final concentration) are prepared in dimethyl sulfoxide (DMSO) and then diluted into assay buffer comprising 50 mM Hepes, 1 mM EDTA, 1 mM DTT, 0.1 mg/ml BSA, 0.01% Brij35, pH 7.4. Alternatively, the assay can be performed with a high BSA concentration, wherein the buffer contains an additional 2% BSA.
Recombinant human renin (3 nM final concentration) is added to the dilutions and pre-incubated with the compounds for 10 minutes at 37° C. As described in Examples A-C above, human Renin can be obtained by expressing preprorenin (residue 1-406) in mammalian cells, treating the prorenin (residues 24-406) contained in the culture supernatant with trypsin, and isolate the active form (residues 67-406). After pre-incubation, the reaction is initiated with 1 μM of substrate QXL520-γ-Abu-Ile-His-Pro-Phe-His-Leu-Val-Ile-His-Thr-Lys (HiLyteFluo488)-Arg-OH (Anaspec, San Jose, Calif.). The final DMSO in the assay is 5%. The total volume of the reaction mixture is 20 μL, which can be placed on Greiner 384-well small volume plates.
Renin activity may be determined via fluorescence (excitation λ=485 nm; emission λ=538 nm), e.g., on a Molecular Devices SPECTROmax GEMINI XPS. The fluorescence intensity is determined upon the addition of substrate and determined again after incubation at 37° C. for one hour. The fluorescence intensity of a blank (no inhibition) using vehicle alone is also determined. Renin activity is linearly proportional to the change in fluorescence observed (final−initial).
The percent inhibition of Renin at a given compound concentration is defined as:
100%×[1−(Fcompound/Fblank)]
where Fcompound is the observed fluorescence at a given concentration of test compound and Fblank is the observed fluorescence in the presence of vehicle alone.
The pIC50 value (negative log of the molar concentration of the compound that produces 50% inhibition) of a test compound is calculated by non-linear least squares curve fitting of the equation: […]
to percent inhibition versus compound concentration. The 50% inhibitory concentration (IC50) of a test compound is calculated by raising 10 to the negative pIC50 (10^−pIC50).

SMILES	IC50 [nM]
CCN(CC)C(=O)Oc1ccc(C[C@@H]2CNCCN2C(=O)CCc2ccccc2Oc2ccccc2)cc1 [Example 74, (R)-4-((1-(3-(2-phenoxyphenyl)propanoyl)piperazin-2-yl)methyl)-phenyl diethylcarbamate]	500 to 5000

Same assay, conditions: recombinant human renin 3 nM, 1 μM substrate, 37° C., pH 7.4; values given as ranges; read-out: IC50 of Exemplified Compounds Against Renin

IC50 [nM]	SMILES
500 to 5000	O=C(O)CCc1ccccc1Oc1ccccc1CCC(=O)N1CCNC[C@H]1Cc1ccccc1 [Example 82, (R)-3-(2-(2-(3-(2-Benzylpiperazin-1-yl)-3-oxopropyl)phenoxy)phenyl)propanoic acid]
< 500	Cc1ccc(Oc2ccccc2CCC(=O)N2CCNC[C@H]2Cc2ccccc2)cc1 [Example 50, (R)-1-(2-benzylpiperazin-1-yl)-3-(2-(p-tolyloxy)phenyl)propan-1-one]
< 500	CC(=O)NCCc1ccccc1Oc1ccccc1CCC(=O)N1CCNC[C@H]1Cc1ccc(OCC(N)=O)cc1 [Example 81, (R)-2-(4-((1-(3-(2-(2-(2-acetamidoethyl)phenoxy)phenyl)propanoyl)piperazin-2-yl)methyl)phenoxy)acetamide]
500 to 5000	CC(=O)NCc1cccnc1Oc1ccccc1CCC(=O)N1CCNC[C@H]1Cc1ccccc1 [Example 38, (R)—N-((2-(2-(3-(2-benzylpiperazin-1-yl)-3-oxopropyl)phenoxy)-pyridin-3-yl)methyl)acetamide]
< 500	CC(=O)NCCc1ccccc1Oc1cc(C)ccc1CCC(=O)N1CCNC[C@H]1Cc1ccccc1 [Example 28, (R)—N-(2-(2-(3-(2-Benzylpiperazin-1-yl)-3-oxopropyl)-5-methylphenoxy)phenethyl)acetamide]
< 500	CC(=O)NCCc1ccccc1Cc1ccccc1CCC(=O)N1CCNC[C@H]1Cc1ccc(OCC(=O)NS(C)(=O)=O)cc1 [Example 91, (R)-2-(4-((1-(3-(2-(2-(2-acetamidoethyl)benzyl)phenyl)propanoyl)piperazin-2-yl)methyl)phenoxy)-N-(methylsulfonyl)acetamide]
< 500	N#CCCc1ccccc1Oc1ccccc1CCC(=O)N1CCNC[C@H]1Cc1ccccc1 [Example 66, (R)-3-(2-(2-(3-(2-benzylpiperazin-1-yl)-3-oxopropyl)phenoxy)phenyl)propanenitrile]
500 to 5000	O=C(O)COc1ccc(C[C@@H]2CNCCN2C(=O)CCc2ccccc2Oc2ccccc2)cc1 [Example 86, (R)-2-(4-((1-(3-(2-phenoxyphenyl)propanoyl)piperazin-2-yl)methyl)phenoxy)acetic acid]
< 500	NC(=O)COc1ccc(C[C@@H]2CNCCN2C(=O)CCc2ccccc2Oc2ccccc2)cc1 [Example 70, (R)-2-(4-((1-(3-(2-phenoxyphenyl)propanoyl)piperazin-2-yl)methyl)phenoxy)acetamide]
< 500	O=C(CCc1ccccc1Oc1ccccc1)N1CCNC[C@H]1Cc1ccc(O)cc1 [Example 68, (R)-1-(2-(4-hydroxybenzyl)piperazin-1-yl)-3-(2-phenoxyphenyl)-propan-1-one]
500 to 5000	CN(C)C(=O)COc1ccc(C[C@@H]2CNCCN2C(=O)CCc2ccccc2Oc2ccccc2)cc1 [Example 71, (R)—N,N-dimethyl-2-(4-((1-(3-(2-phenoxyphenyl)propanoyl)piperazin-2-yl)methyl)phenoxy)acetamide]
< 500	CC(=O)NCCc1ccccc1Cc1ccccc1CCC(=O)N1CCNC[C@H]1Cc1ccc(OCC(N)=O)cc1 [Example 89, (R)-2-(4-((1-(3-(2-(2-(2-acetamidoethyl)benzyl)phenyl)propanoyl)piperazin-2-yl)methyl)phenoxy)acetamide]
< 500	CC(=O)NCCc1ccccc1Cc1ccccc1CCC(=O)N1CCNC[C@H]1Cc1ccc(C(=O)NS(C)(=O)=O)cc1 [Example 93, (R)-4-((1-(3-(2-(2-(2-acetamidoethyl)benzyl)phenyl)propanoyl)piperazin-2-yl)methyl)-N-(methylsulfonyl)benzamide]
< 500	CC(=O)NCCc1ccccc1Oc1ccc(C)cc1CCC(=O)N1CCNC[C@H]1Cc1ccccc1 [Example 26, (R)—N-(2-(2-(3-(2-Benzylpiperazin-1-yl)-3-oxopropyl)-4-methylphenoxy)phenethyl)acetamide]

The next lines start with the molecule.

SMILES	IC50 [nM]
COc1ccccc1-c1ccccc1CC(=O)N1CCNC[C@H]1Cc1ccccc1 [Example 9, 1-((R)-2-Benzylpiperazin-1-yl)-2-(2′-methoxybiphenyl-2-yl)ethanone]	5000 to 50000
CC(=O)NCc1c(C)cc(C)nc1Oc1ccccc1CCC(=O)N1CCNC[C@H]1Cc1ccccc1 [Example 39, (R)—N-((2-(2-(3-(2-benzylpiperazin-1-yl)-3-oxopropyl)phenoxy)-4,6-dimethylpyridin-3-yl)methyl)acetamide]	< 500
COCCCOc1ccccc1CCC(=O)N1CCNC[C@H]1Cc1ccccc1 [Example 75, (R)-1-(2-benzylpiperazin-1-yl)-3-(2-(3-methoxypropoxy)phenyl)-propan-1-one]	500 to 5000
CCNC(=O)c1cccc(Oc2ccccc2CCC(=O)N2CCNC[C@H]2Cc2ccccc2)c1 [Example 34, (R)-3-(2-(3-(2-Benzylpiperazin-1-yl)-3-oxopropyl)phenoxy)-N-ethylbenzamide]	500 to 5000
O=C(CSC(c1ccccc1)c1ccccc1)N1CCNC[C@H]1Cc1ccccc1 [Example 65, (R)-2-(benzhydrylthio)-1-(2-benzylpiperazin-1-yl)ethanone]	500 to 5000
O=C(Cc1ccccc1Oc1ccccc1)N1CCNC[C@H]1Cc1ccccc1 [Example 8, (R)-1-(2-Benzylpiperazin-1-yl)-2-(2-phenoxyphenyl)ethanone]	5000 to 50000
O=C(CCC(=O)N1CCNC[C@H]1Cc1ccccc1)c1ccccc1 [Example 5, (R)-1-(2-Benzylpiperazin-1-yl)-4-phenylbutane-1,4-dione]	> 50000
O=C(NC(c1ccccc1)c1ccccc1)N1CCNC[C@H]1Cc1ccccc1 [Example 10, (R)—N-Benzhydryl-2-benzylpiperazine-1-carboxamide]	> 50000
O=C(CCc1ccccc1Cc1ccccc1)N1CCNC[C@H]1Cc1ccccc1 [Example 53, (R)-3-(2-benzylphenyl)-1-(2-benzylpiperazin-1-yl)propan-1-one]	< 500
O=C(COc1cccc(Cc2ccccc2)c1)N1CCNC[C@H]1Cc1ccccc1 [Example 62, (R)-2-(3-benzylphenoxy)-1-(2-benzylpiperazin-1-yl)ethanone]	5000 to 50000
O=C(CCc1ccccc1Oc1ccccc1)N1CCNC[C@H]1Cc1ccccc1 [Example 7, (R)-1-(2-Benzylpiperazin-1-yl)-3-(2-phenoxyphenyl)propan-1-one]	< 500
Cc1nc(-c2ccc(Cl)cc2)c(CCC(=O)N2CCNC[C@H]2Cc2ccccc2)o1 [Example 54, (R)-1-(2-benzylpiperazin-1-yl)-3-(4-(4-chlorophenyl)-2-methyloxazol-5-yl)propan-1-one]	5000 to 50000
O=C(CC(c1ccccc1)c1ccccc1)N1CCNC[C@H]1Cc1ccccc1 [Example 2, (R)-1-(2-Benzylpiperazin-1-yl)-3,3-diphenylpropan-1-one]	500 to 5000
Cc1ccc(C(CC(=O)N2CCNC[C@H]2Cc2ccccc2)N2Cc3ccccc3C2=O)cc1 (stereo partly drawn) [Example 14, 2-(3-((R)-2-Benzylpiperazin-1-yl)-3-oxo-1-p-tolylpropyl)isoindolin-1-one]	500 to 5000
CC1(C)CC(C(CC(=O)N2CCNC[C@H]2Cc2ccccc2)c2ccccc2)CCO1 (stereo partly drawn) [Example 61, 1-((R)-2-benzylpiperazin-1-yl)-3-(2,2-dimethyltetrahydro-2H-pyran-4-yl)-3-phenylpropan-1-one]	< 500
O=C(CCc1nc2ccccc2oc1=O)N1CCNC[C@H]1Cc1ccccc1 [Example 55, (R)-3-(3-(2-benzylpiperazin-1-yl)-3-oxopropyl)-2H-benzo[b][1,4]-oxazin-2-one]	5000 to 50000
